# According to patent US20230372337A1, “Combination Therapy Comprising an AXL Inhibitor” (BERGENBIO ASA, priority 2020, published 2023):
# Legend:
# [1] = system: type I IFN related genes (ISG); assay: RT2 Profiler PCR Array Mouse Type I Interferon Response on 4T1 tumors (Example 2); assay type: in vivo, Balb/c mice
# From the text: Bemcentinib was given as a loading dose for 3 days (11-13 after tumor implantation) and then as a standard dose until sacrifice.
# 9 mice have been excluded of the study because of the absence of tumor on day 11. On day 11 post implantation half of the cages were placed in the bemcentinib treated group and the other half in the […]. The average tumor volume when bemcentinib treatment was initiated (day 11) was 54.99 mm^3. […] The tumor volumes when bemcentinib treatment was initiated and the day of randomization are recorded in table 8. The intra tumomoral injection of doxorubicin and sting agonists was adjusted to the tumor volume.
# Doxorubicin is provided in a 2 mg/ml solution. As it is technically challenging to inject 50 ul liquid into tumors measuring <100 mm^3, the total dosing volume was calculated based on the following formula: V=50 ul×(TV/120). This is done to minimize variability due to leakage during intratumoral injection. For the 1 mg/kg dose (E,F) Doxorubicin was given at a concentration of 0.5 mg/ml, which corresponds to 1 mg/kg for a 25 g mouse with a tumor of 120 mm^3, and 1 mg/kg for a 20 g mouse with a tumor of 100 mm^3. For 3 mg/kg dose (G,H), a solution of 1.5 mg/ml was used and same volumes was injected. For the 6 mg/kg dose (I,J) the commercial solution of 2 mg/ml will be used and 75 ul was injected for tumor with a volume of 120 mm^3.
# The same formula as for doxorubicin was used V=50 ul×(TV/120).
# (§1) RNA was extracted from […] snap frozen tumors using the RNEasy Microarray Tissue Mini kit from Qiagen following the manufacturer's instructions. As tumors contained Doxorubicin and powderizing them could expose personnel to harmful substances, the RNA was extracted in a closed system using the GentleMACS dissociator and M Tubes. Purity and concentration of RNA was measured using Nanodrop. cDNA was synthesized from RNA using the RT^2 First Strand kit (Qiagen) according to the manufacturer's instructions. cDNA was mixed with RT^2 SYBR Green Mastermix (Qiagen) and loaded into RT Profiler™ PCR Array Mouse Type I Interferon Response or RT^2 Profiler™ PCR Array Mouse Epithelial to Mesenchymal Transition (EMT), analyzing the expression of 84 genes listed in Tables 9 and 10. The plates were analyzed using Light Cycler 480 (Roche) and data were analyzed using the Qiagen Data Analysis Centre and Graph Pad (Prism).
# (§2) Quiagen RT^2 software was used to analyze all the samples from different groups. To be able to generate heatmaps and graph on fold change including error bars, the data have been analyzed manually with Graph Pad (Prism) when the Quiagen RT^2 software gave significant results between the different groups. For IFN type 1 response 1 mg/kg 48, 72 h and 3 mg/kg 48 h, were analyzed manually. For EMT, 1 mg/kg 48, 72 h, 3 mg/kg 72 h. When the data have been analyzed manually, the results are presented as histograms of mRNA fold changes. For the time points and doses analyzed by the software, the results are presented as tables.
# GraphPadPrism was used to generate the heat maps, graphs with mRNA fold change, and to make the statistics. Multiple TTests, paired were performed on ΔΔ Ct values.
# The expression of type I IFN related genes (ISG) was assessed in tumors collected 24, 48 and 72 hours after i.t. doxorubicin treatment. 3 groups were compared per timepoint: bemcentinib (bern), doxorubicin only (dox) and doxorubicin combined with bemcentinib (doxbern), the fold changes were compared with the control groups injected with PBS, and the fold change was 1 for the control groups.
# EMT related genes = assay: RT2 Profiler PCR Array Mouse Epithelial to Mesenchymal Transition (EMT) on 4T1 tumors (Example 2); assay type: in vivo, Balb/c mice; details: for Downregulated EMT genes (number): doxorubicin 1 mg/kg i.t., 72 hr timepoint; for EMT related genes significantly downregulated (number): doxorubicin 3 mg/kg i.t., 72 hours
# Experimental: as §1, §2
# EMT related gene expression in tumors was assessed by the RT^2 Profiler™ PCR Array for the 1 and 3 mg/kg doses at 48 and 72 hr timepoints. The highest dose and 24 hr timepoint samples were excluded based on the results outlined above.
# 43 mouse cytokines = assay: Plasma cytokines, ProcartaPlex Multiplex Immunoassay (Luminex) (Example 2); assay type: in vivo, Balb/c mice; details: 1 mg/kg doxorubicin i.t., 72 h post injection, 43 measured
# Experimental: The manufacturer user guide was followed. The samples were analyzed by (MAGPIX) and the results were obtained as concentration in pg/ml of mouse plasma. At least 3 samples per group, 4 for many, were analyzed.
# IFN related genes (ISG) = assay: qRTPCR of IFN related genes in Yumm1.7 tumors after sacrifice (Example 3); assay type: in vivo, C57Bl6 mice; details: 35 IFN related genes tested
# Experimental: RNA was extracted from snap frozen tumors using the RNEasy Microarray Tissue Mini kit from Qiagen following the manufacturer's instructions. As tumors contained Doxorubicin and powderizing them could expose personnel to harmful substances, the RNA was extracted in a closed system using the GentleMACS dissociator and M Tubes. Purity and concentration of RNA was measured using Nanodrop. cDNA was synthesized from RNA using the RT^2 First Strand kit (Qiagen) according to the manufacturer's instructions. cDNA was mixed with SYBR Green Mastermix (Qiagen) and loaded into PCR plates with different probes against interferon related genes (listed in table 14). The plates were analyzed using Light Cycler 480 (Roche) and data were analyzed using Graph Pad (Prism).
# Tumors from 4 animals treated either with Vehicle (group A), bemcentinib (Group B), Doxorubicin (group F) or bemcentinib+Doxorubicin (group H) were analyzed. Data are presented as fold changes compared to Vehicle treated mice. 35 IFN related genes (Table 14) were tested by RT PCR. Fold change was obtained compared to the control group (A). […]
# A molecular mechanism focused study will be performed later; here samples were collected after sacrifice, meaning many days after treatment for some of the groups. The expression of 35 ISG as well, immune checkpoint related genes EMT related genes, Axl and Gas6 were analyzed by qRTPCR (Table 14).
# Yumm1.7 cells = assay: qRTPCR of IFN related genes in Yumm1.7 cells in vitro (Example 4); assay type: cell-based, mouse
# [2] = mouse, in vivo
# From the text: Animals were weighed prior to tumor cell injection, prior to daily dosing and prior to euthanasia.
# [3] = system: 4T1 mammary carcinoma cells; assay: Tumor growth, 4T1 model (Example 2); parameters: species or system Balb/c mice; details: short in vivo study, single i.t. injection day 15
# Experimental: Tumor growth was measured with a digital handheld caliper twice weekly from emergence of tumor and until the day of euthanasia
# 4T1 cells = assay: qRTPCR of IFN related genes in 4T1 cells in vitro (Example 4); assay type: cell-based, mouse; details: doxorubicin, 42 ISG measured
# [4] = 24 hours after DMXAA i.t. treatment
# [5] = doxorubicin 1 mg/kg i.t., 24 hours after injection, 84 genes
# [6] = Yumm1.7 cells, doxorubicin 24 hours
smiles,measurement,setting,value
"Nc1nc(Nc2ccc3c(c2)CC[C@@H](N2CCCC2)CC3)nn1-c1cc2c(nn1)-c1ccccc1CCC2 [Bemcentinib, bemcentinib]",Fold change of upregulated ISG,[1]; [4],around 2 fold
same,ISG significantly upregulated compared to control (number),[1]; [4],3
same,ISG significantly upregulated compared to control (number),[1]; [5],no ISG
same,ISG significantly upregulated compared to control (number),"[1]; doxorubicin 1 mg/kg i.t., 48 h",none
same,ISG significantly upregulated compared to control (number),"[1]; doxorubicin 3 mg/kg i.t., 48 h",No
same,Downregulated EMT genes (number),EMT related genes,one
same,EMT related genes significantly downregulated (number),EMT related genes,none
same,Cytokines with a significant decrease of concentration (number),43 mouse cytokines,4
same,ISG significantly upregulated compared to control (number),IFN related genes (ISG),4
same,Effect on the IFNB mediated response,Yumm1.7 cells; Yumm1.7 cells treated with IFNB,"appeared to increase the IFNB mediated response, although not reaching significance"
"COc1cccc2c1C(=O)c1c(O)c3c(c(O)c1C2=O)C[C@@](O)(C(=O)CO)C[C@@H]3O[C@H]1C[C@H](N)[C@H](O)[C@H](C)O1 [Doxorubicin, doxorubicin]",ISG significantly upregulated compared to control (number),[1]; [5],no ISG
same,Fold change of one upregulated ISG,"[1]; doxorubicin 1 mg/kg i.t., 48 h",3 fold
same,ISG significantly upregulated compared to control (number),"[1]; doxorubicin 1 mg/kg i.t., 48 h",one
same,ISG significantly upregulated compared to control (number),"[1]; doxorubicin 3 mg/kg i.t., 24 h",one
same,ISG significantly upregulated compared to control (number),"[1]; doxorubicin 3 mg/kg i.t., 48 h",No
same,ISG significantly upregulated compared to control (number),"[1]; doxorubicin 6 mg/kg i.t., 24 hours",1
same,ISG significantly upregulated compared to control (number),"[1]; doxorubicin 6 mg/kg i.t., 48 hours",8
same,ISG significantly upregulated compared to control (number),"[1]; doxorubicin 6 mg/kg i.t., 72 hours",6
same,Downregulated EMT genes (number),EMT related genes,one
same,EMT related genes significantly downregulated (number),EMT related genes,none
same,Effect on the body weight of mice,[2],limited effect
same,Tumor growth,[3],no effect
same,ISG significantly upregulated compared to control (number),IFN related genes (ISG),No gene
same,ISG with significant mRNA fold change upregulation compared to control (number),4T1 cells,9
same,IFIT1 mRNA fold change,Yumm1.7 cells; [6],20 fold
same,OAS2 mRNA fold change,Yumm1.7 cells; [6],50 fold
same,RSAD2 mRNA fold change,Yumm1.7 cells; [6],20 fold
same,ISG significantly upregulated compared to control (number),"Yumm1.7 cells; Yumm1.7 cells, doxorubicin 24 hours, 21 ISG tested",9
